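1) Cells in 96-well plates. 2) Compound, 48 h, 5 concentrations. 3) Linear interpolation between surrounding doses. 4) Unreached endpoint = highest concentration. GI50 is the concentration that inhibits growth by half.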 Activity calls are given as the source filed them. No stated cut-off is given here; in the data, active = GI50 up to about 1.1 µM and inactive = higher.
Assays:
Assay in all cases: inhibition of tumour cell growth, NCI panel, 48 h
A549 = test system: A549
CCRF-CEM = test system: CCRF-CEM
EKVX = test system: EKVX
HCT-116 = test system: HCT-116
HOP-92 = test system: HOP-92
HT-29 = test system: HT-29
KM12 = test system: KM12
MOLT-4 = test system: MOLT-4
NCI-H226 = test system: NCI-H226
NCI-H460 = test system: NCI-H460
NCI-H522 = test system: NCI-H522
OVCAR-4 = test system: OVCAR-4
OVCAR-5 = test system: OVCAR-5
OVCAR-8 = test system: OVCAR-8
SF-268 = test system: SF-268
SK-MEL-28 = test system: SK-MEL-28
SK-MEL-5 = test system: SK-MEL-5
SN12C = test system: SN12C
UACC-62 = test system: UACC-62
RXF 393 = test system: RXF 393

Measured: GI50

Cc1nc2c(nc1C)-c1c(c3c(n1Cc1ccccc1)C(=O)CCC3)C(=O)C2=O
inactive: A549 3.93 µM | CCRF-CEM 3.03 µM | EKVX 5.69 µM | HCT-116 4.84 µM | HOP-92 3.4 µM | HT-29 4.65 µM | KM12 2.09 µM | MOLT-4 2.9 µM | NCI-H226 21.4 µM | NCI-H460 4.62 µM | NCI-H522 2.86 µM | OVCAR-4 1.81 µM | OVCAR-5 3.74 µM | OVCAR-8 3.09 µM | SF-268 2.21 µM | SK-MEL-28 2.02 µM | SK-MEL-5 6.34 µM | SN12C 2.42 µM | UACC-62 14.5 µM

O=CN/C=C\c1cc(O)ccc1O
inactive: A549 > 100 µM | CCRF-CEM 5.11 µM | EKVX 15.5 µM | HCT-116 10.6 µM | HOP-92 14.2 µM | HT-29 16.9 µM | KM12 > 22.5 µM | MOLT-4 18.2 µM | NCI-H226 14.5 µM | NCI-H460 10 µM | NCI-H522 4.99 µM | OVCAR-4 12.7 µM | OVCAR-5 > 100 µM | OVCAR-8 15.6 µM | SF-268 22.5 µM | SK-MEL-28 42.2 µM | SK-MEL-5 7.59 µM | SN12C 14 µM | UACC-62 11.6 µM

N#CC(C#N)=Cc1ccc(CP(=O)(O)O)cc1
inactive: A549 > 100 µM | CCRF-CEM 44.2 µM | EKVX > 100 µM | HCT-116 > 100 µM | HOP-92 > 100 µM | HT-29 > 100 µM | KM12 > 100 µM | MOLT-4 > 100 µM | NCI-H226 > 100 µM | NCI-H460 > 100 µM | NCI-H522 59.6 µM | OVCAR-4 > 100 µM | OVCAR-5 > 100 µM | OVCAR-8 > 100 µM | SF-268 > 100 µM | SK-MEL-28 > 100 µM | SK-MEL-5 > 100 µM | SN12C > 100 µM | UACC-62 > 100 µM

CC(C)=CCC12Cc3ccc(O)cc3C(C(C)CN1)C2C (centres undefined)
inactive: A549 > 100 µM | CCRF-CEM 46.8 µM | EKVX > 100 µM | HCT-116 59.7 µM | HOP-92 44 µM | HT-29 44.6 µM | KM12 > 100 µM | MOLT-4 52 µM | NCI-H226 > 100 µM | NCI-H460 52.5 µM | OVCAR-4 > 100 µM | OVCAR-5 58.9 µM | OVCAR-8 > 100 µM | RXF 393 > 100 µM | SF-268 > 100 µM | SK-MEL-28 49.9 µM | SK-MEL-5 > 10 µM | SN12C > 100 µM | UACC-62 > 100 µM

Cc1cccc(NC2=NC(=O)C(CC(=O)Nc3ccccc3Cl)S2)c1 (centres undefined)
inactive: A549 > 100 µM | CCRF-CEM > 100 µM | EKVX > 100 µM | HCT-116 > 100 µM | HOP-92 > 100 µM | HT-29 > 100 µM | MOLT-4 > 100 µM | NCI-H226 > 100 µM | NCI-H460 > 100 µM | OVCAR-4 > 100 µM | OVCAR-5 > 100 µM | OVCAR-8 > 100 µM | RXF 393 > 100 µM | SF-268 > 100 µM | SK-MEL-28 > 100 µM | SK-MEL-5 > 100 µM | SN12C > 100 µM | UACC-62 > 100 µM

Cn1cnc([N+](=O)[O-])c1Sc1ccccn1
inactive: A549 > 100 µM | CCRF-CEM 48.9 µM | EKVX > 100 µM | HCT-116 > 100 µM | HOP-92 > 100 µM | HT-29 > 100 µM | KM12 > 100 µM | MOLT-4 38.5 µM | NCI-H226 > 100 µM | NCI-H460 > 100 µM | NCI-H522 74.3 µM | OVCAR-4 > 100 µM | OVCAR-5 > 100 µM | OVCAR-8 > 100 µM | SF-268 > 100 µM | SK-MEL-28 > 100 µM | SK-MEL-5 > 100 µM | SN12C > 100 µM | UACC-62 > 100 µM

COc1cc(C2c3cccc4cccc(c34)C3CCC(=O)N32)cc(OC)c1O (centres undefined)
inactive: A549 42.7 µM | CCRF-CEM > 50 µM | EKVX > 50 µM | HCT-116 > 50 µM | HOP-92 > 50 µM | HT-29 > 50 µM | KM12 > 50 µM | MOLT-4 > 50 µM | NCI-H226 > 50 µM | NCI-H460 > 50 µM | OVCAR-4 > 50 µM | OVCAR-5 > 50 µM | OVCAR-8 > 50 µM | RXF 393 > 50 µM | SK-MEL-28 > 50 µM | SN12C > 50 µM | UACC-62 > 50 µM

Nc1ccc(/N=N/c2ccccc2)cc1
inactive: A549 32.6 µM | CCRF-CEM 6.41 µM | EKVX 28.2 µM | HCT-116 54.6 µM | HOP-92 30.6 µM | HT-29 28.6 µM | KM12 23.8 µM | MOLT-4 11.7 µM | NCI-H226 25.4 µM | NCI-H460 29.1 µM | OVCAR-4 > 100 µM | OVCAR-5 > 100 µM | OVCAR-8 28 µM | RXF 393 20.1 µM | SK-MEL-28 > 100 µM | SK-MEL-5 53.5 µM | SN12C 69.5 µM | UACC-62 27.4 µM

O=C1Nc2ccc([N+](=O)[O-])cc2/C1=N/NC(=S)Nc1ccccc1
inactive: A549 5.05 µM | CCRF-CEM 2.16 µM | EKVX 1.21 µM | HCT-116 4.05 µM | HOP-92 2.92 µM | HT-29 5.37 µM | KM12 8.41 µM | MOLT-4 5.98 µM | NCI-H226 18.5 µM | NCI-H460 3.61 µM | OVCAR-4 7.23 µM | OVCAR-5 12.2 µM | OVCAR-8 5.16 µM | RXF 393 11.6 µM | SK-MEL-28 16.5 µM | SK-MEL-5 2.9 µM | SN12C 5.9 µM | UACC-62 11 µM

Cc1cn(C2CC(OC(c3ccccc3)(c3ccccc3)c3ccccc3)C(COC(c3ccccc3)(c3ccccc3)c3ccccc3)O2)c(=O)[nH]c1=O (centres undefined)
inactive: A549 34.3 µM | CCRF-CEM > 100 µM | EKVX 45.6 µM | HCT-116 17.1 µM | HOP-92 21.1 µM | HT-29 61 µM | KM12 31.3 µM | MOLT-4 29.4 µM | NCI-H226 26.1 µM | NCI-H460 57.8 µM | OVCAR-4 > 100 µM | OVCAR-5 53.1 µM | OVCAR-8 > 100 µM | RXF 393 30 µM | SF-268 99.8 µM | SK-MEL-28 36.8 µM | SK-MEL-5 43.3 µM | SN12C 53.6 µM | UACC-62 > 100 µM

CN(C)/C=C/C=C(/C=N/S(=O)(=O)C(F)(F)F)C1C=CN(S(=O)(=O)C(F)(F)F)C=C1
inactive: A549 32.4 µM | CCRF-CEM 27.1 µM | EKVX 30.1 µM | HCT-116 29.2 µM | HOP-92 32.7 µM | HT-29 27.5 µM | KM12 25 µM | MOLT-4 26.2 µM | NCI-H226 26 µM | NCI-H460 24.3 µM | NCI-H522 21.6 µM | OVCAR-4 15.8 µM | OVCAR-5 30.2 µM | OVCAR-8 37.7 µM | SF-268 48.5 µM | SK-MEL-28 91.8 µM | SK-MEL-5 23.5 µM | SN12C 40.6 µM | UACC-62 42.3 µM

From ChEMBL document CHEMBL1201862, “PubChem BioAssay data set” (2004)
